Experimental data published in article PMC4559881 (Molecular Neurodegeneration, 2015).
Several values for one entry are separate records, joined by “and”; a condition that tells them apart may be missing. Equal values may be shown once. Read-outs that look alike come from different tables or passages of the source.

How the values were obtained:
[1] = Octanol/water distribution coefficient; type: physicochemical; settings: derived from apparent permeability across an artificial liquid membrane
Method: The octanol/water distribution coefficient was derived from the apparent permeability across an artificial liquid membrane. The PAMPA assay was done as described. MDCK cells overexpressing human p-glycoprotein (MDR1-MDCK cells, obtained from Prof. A. Berns, Netherlands Cancer Institute) were grown on HTS Multiwell plates, 1 μm pore size (Becton Dickinson). After formation of a tight monolayer, NB-360 was applied to either the upper or the lower chamber. After one hour, liquid was removed from the upper and lower chambers and analyzed by HPLC-MS. Apical-to-basolateral and basolateral-to-apical transport rates were calculated.

[2] = Dissociation constant (pKa); type: physicochemical
Aβ40 [3] = assay: Rat PK/PD study: Aβ40 in forebrain and CSF after oral dosing; type: in vivo; settings: for ED50: po, at 4 h, read-out: ED50 for inhibition of forebrain Aβ40
Method: Maximum activity was between 4 and 8 h, and Aβ40 concentrations returned to baseline after 24 h. Significant (>50 %) Aβ40 lowering was observed even at the lowest dose of 3 μmol/kg, and the effect saturated at higher doses.
(§1) Frozen rodent forebrains were homogenized in 9 volumes of ice-cold Tris-buffered saline (pH 7.4) containing Complete protease inhibitor cocktail (Roche Diagnostics, Penzberg, Germany) using a Sonifier 450 (Branson) and stored in aliquots at -80 °C. Triton X-100 soluble Aβ was extracted by mixing 50 μl 2 % Triton X-100 with 50 μl homogenate, incubating for 15 min on ice with vortexing, followed by ultracentrifugation at 100000xg for 15 min. The clear supernatant was diluted to a final forebrain dilution of 1:100 and used for analysis. For the extraction of insoluble amyloid peptides, 50 μl forebrain homogenate was mixed with 117 μl of 100 % formic acid and stored on ice for 15 min with vortexing. Samples were neutralized with 950 μl 1 M Tris base, containing Complete protease inhibitor cocktail (Roche, Basle, Switzerland) and stored overnight at room temperature. The supernatant after 15 min centrifugation at 14000 rpm was used for analysis.
(§2) Aβ38, 40 and 42 were determined using the electro-chemiluminescence immuno assay kits from Meso Scale Discovery (Rockville, MD, USA) in either singlet or triplex format. Samples and standards were prepared according to the manufactures protocols. The kit based on the antibody 4G8 was used for rat forebrain and CSF samples, and kits based on 6E10 were used for dog CSF or plasma and APP51/16 brain and CSF samples. Soluble APPα and sAPPβ from APP51/16 mice were determined from the 100000xg supernatant and analyzed with Meso Scale Discovery commercial kits. C-terminal fragments C83 and C99 were determined from Western blots. Forebrain homogenates dephosphorylated with lambda protein phosphatase as described and run on a 10 % Tris-bicine gel with 8 M urea. After transfer to Immobilon P membranes (Bio-Rad Bedford MA USA), bands were probed with APP C8 antibody (recognizing the C-terminus of APP) and detected with goat anti-mouse IgG Fab fragment AlexaFluor680 (Invitrogen). The same gel was used to visualize Aβ1-38, 1-40, and 1-42 using the N-terminal antibody beta1 and goat anti rabbit IgG IRdye 800CW (Odyssey). Full-length human APP was detected using an in house immunoassay based on the MSD ECL system as described.

Aβ40 [4] = assay: Dog PK/PD study: Aβ40 in CSF and plasma; type: in vivo
Method: The mean (± SD) level of Aβ40 in the CSF prior to dosing was 5991 ± 1199 pg/ml (2 sampling times -24 h and -1 h, n = 7), and the predose plasma Aβ40 level was 261 ± 13 pg/ml (mean ± SD, n = 4, -1 h). […] All dogs responded strongly to the treatment, CSF Aβ40 was reduced by approximately 80 % from 12 to 48 h post dose and slowly returned to baseline (Fig. 3b). […] Furthermore, the available data were used for a calculation of the Aβ40 clearance rate from dog CSF.
as §2

Aβ40 [5] = assay: Pre-plaque APP51/16 mice: brain Aβ40 after single or 4-day oral dosing; type: in vivo, mouse
Method: This strain of transgenic mice was selected since it resembles the situation in sporadic human AD, where no APP mutation is present. […] Next, we dosed the compound p.o. once daily for 4 days at 2 doses to pre-plaque APP51/16 mice (age: 8 months) in order to achieve steady state exposure, and measured the Aβ40 reduction 24 h after the last dose. […] In order to achieve a >50 % reduction of brain Aβ over a 24 h period in mice we selected this dose for a chronic study.
as §1
Aβ38, 40 and 42 were determined using the electro-chemiluminescence immuno assay kits from Meso Scale Discovery (Rockville, MD, USA) in either singlet or triplex format. Samples and standards were prepared according to the manufactures protocols. […] Soluble APPα and sAPPβ from APP51/16 mice were determined from the 100000xg supernatant and analyzed with Meso Scale Discovery commercial kits. C-terminal fragments C83 and C99 were determined from Western blots. […] After transfer to Immobilon P membranes (Bio-Rad Bedford MA USA), bands were probed with APP C8 antibody (recognizing the C-terminus of APP) and detected with goat anti-mouse IgG Fab fragment AlexaFluor680 (Invitrogen). […]

APP51/16 transgenic mice = assay: Chronic 6-week treatment of APP51/16 mice: APP metabolites, Aβ deposition and neuroinflammation; type: in vivo, mouse; settings: relative to vehicle-treated mice
SweAPP CHO cells = assay: Aβ40 release from Swedish human APP751 CHO cells; settings: Cricetulus griseus, 24 h, read-out: IC50 Aβ40 release
[6] = Pharmacokinetics after i.v. and oral application, mouse
Method: (§3) Pharmacokinetic studies used male Sprague Dawley rats, C57BL6 mice and Beagle dogs, obtained from Charles River (France, rodents) and Marshall (Italy, dogs). […] Blood was collected i.v., by sublingual bleeding or at sacrifice whereas a serial blood sampling allowed obtaining individual PK profiles in these species. Blood samples were taken between 5 min (intravenous) and 15 min (oral) up to 24 h (mice), 48 h (rat) and 408 h (dog).
(§4) The absorption and disposition parameters were estimated by a non-compartmental analysis of the mean blood concentration (n = 3 mice) or individual concentration (rats, dogs) versus time profile after oral and intravenous administration.

[7] = Pharmacokinetics after i.v. and oral application, beagle dog
Method: as §3, §4

wtAPP CHO cells = assay: Release of APP metabolites from wild-type human APP751 CHO cells; settings: Cricetulus griseus, 24 h

Cc1cc(C#N)cnc1C(=O)Nc1ccc(F)c([C@]2(C)CO[C@@](C)(C(F)(F)F)C(N)=N2)c1 [NB-360]
logP [1]: 3.7 | pKa [2]: 7.1 | Aβ40 inhibition (Aβ40 [3]; 30 μmol/kg p.o., 4 h): 90.9% and ~ 90% | Max effect (dose-response in brain) (Aβ40 [3]; based on 4 h data, Fig. 2d): 91% | Aβ40 lowering (Aβ40 [3]; lowest dose 3 μmol/kg p.o.): > 50% | ED50 (Aβ40 [3]; converted dose): 0.7 mg/kg | ED50 (Aβ40 [3]): 1.6 ± 0.25 µmol/kg | time to reach the maximum effect on CSF Aβ (Aβ40 [4]; 1.1 μmol/kg (0.5 mg/kg)): around 12 h | time at which CSF Aβ40 reached baseline (Aβ40 [4]; 0.5 mg/kg p.o.): about 120 h | Plasma Aβ40 change (Aβ40 [4]; 0.5 mg/kg p.o., after 1 h): -42% | Plasma Aβ40 change (Aβ40 [4]; 0.5 mg/kg p.o., after 12 h): -70% | CSF Aβ40 reduction (Aβ40 [4]; 0.5 mg/kg p.o., from 12 to 48 h post dose): approximately 80% | IC50 (Aβ40 [4]; Canis lupus familiaris, read-out: in vivo IC50 of NB-360 in blood for the reduction of Aβ40 in CSF, PK/PD modelling): 59 ± 13 nM | Aβ reduction, approximate area under the effect curve over a 24 h period (Aβ40 [4]; from the values at 12 and 36 h): 70-75% | lowering of TX-100 soluble brain Aβ40 (Aβ40 [5]; pre-plaque APP51/16 mice (3-5 months), 30 μmol/kg single oral dose, 4 h): 79.6% | reduction of forebrain Aβ (Aβ40 [5]; pre-plaque APP51/16 mice (8 months), 30 μmol/kg/d p.o. 4 days, 24 h after last dose): 15.1% | Aβ40 reduction in forebrain (Aβ40 [5]; pre-plaque APP51/16 mice (8 months), 100 μmol/kg/d p.o. 4 days, 24 h after last dose): 52.1% | number of GFAP positive cell clusters in the cortex (APP51/16 transgenic mice): substantially lower | IC50 (SweAPP CHO cells): 33 nM | clearance ([6]; C57BL6, mouse, blood, iv, 2 umol/kg): 16 mL/min/kg | bioavailability ([6]; C57BL6, mouse, blood, po, 6 umol/kg): 37% | Terminal half-life after i.v. application ([6]; mouse, 2 μmol/kg i.v.): 3.6 h | Vol. of Distribution ([6]; mouse, 2 μmol/kg i.v.): 4.6 L/kg | Vol. of Distribution ([7]; 2 μmol/kg i.v.): 0.9 L/kg | clearance ([7]; Beagle, blood, iv, 2 umol/kg): 0.4 mL/min/kg | half-life ([7]; Beagle, blood, iv, 2 umol/kg): 36.2 h | bioavailability ([7]; Beagle, blood, po, 2 umol/kg): 62% | IC50 (wtAPP CHO cells; read-out: IC50 Aβ40 release): 3 nM | IC50 (wtAPP CHO cells; read-out: IC50 Aβ42 release): 3 nM | IC50 (wtAPP CHO cells; read-out: IC50 sAPPβ release): 4 nM
